Experimental data: patent US8598145B2, “Mitochondrially delivered anti-cancer compounds” (priority 2008, dated 2013)
Where two headings read alike, the source gives them in different places.

Legend:
[1] = tested on: Ras-transformed B9 cells with a defective Complex II; experiment: Apoptosis in Ras-transformed B1 and B9 cells (FIG. 4C); format: cell-based, Chinese hamster
Protocol: 4C—After 24 h of treatment with Complex II targeting drugs TTFA or MitoVES, Ras transformed B1 and B9 cells were assessed for apoptosis using the Annexin V binding method.
The following cell lines used in this study were obtained from ATCC, unless specified otherwise: Human T lymphoma cells Jurkat, human mesothelioma cells Meso-I, MM-BI, Ist-Mes, Ist-Mes-2 (Pass, H. I. et al. Characteristics of nine newly derived mesothelioma cell lines. Ann. Thorac. Surg. 59, 835-844 (1995)), human breast cancer cells MCF-7 (erbB2-low) and MDA-MB-453 (erbB2-high), human colorectal cells HCT-116, human hepatocarcinoma cells Huh-7, mouse mesothelioma cells AE17 (Jackaman, C. et al. IL-2 intratumoral immunotherapy enhances CD8+ T cells that mediate destruction of tumor cells and tumor-associated vasculature: a novel mechanism for IL-2. J. Immunol. 171, […] (2003), human non-malignant mesothelial cells Met-5A, […] (Claycomb, W. C. et al. HL-1 cells: a cardiac muscle cell line that contracts and retains phenotypic characteristics of the adult cardiomyocyte. Proc. Natl. Acad. Sci. USA 95, 2979-2984 […]) and H9c2, and the human endothelial-like cells EAhy926 (Edgell, C. J., McDonald, C. C. & Graham, J. B. Permanent cell line expressing human factor VIII-related antigen established by hybridization. Proc. Natl. Acad. Sci. USA 80, 3734-3737 (1983)). Jurkat cells were grown in the RPMI medium while DMEM was used for other malignant cell lines and for Met-5A cells, supplemented with 10% FCS and antibiotics. HL-1 cells, maintained in fibronectin/gelatine-coated dishes, were grown in the Claycomb medium supplemented with noradrenalin (Claycomb, W. C. et al. HL-1 cells: a cardiac muscle cell line that contracts and retains phenotypic characteristics of the adult cardiomyocyte. Proc. Natl. Acad. Sci. USA 95, 2979-2984 […]), EAhy926 cells were grown in complete DMEM supplemented with HAT (Edgell, C. J., McDonald, C. C. & Graham, J. B. Permanent cell line expressing human factor VIII-related antigen established by hybridization. Proc. Natl. Acad. Sci. USA 80, 3734-3737 (1983)). Cells deficient in mtDNA (ρ^0 phenotype) were prepared as detailed in Weber, T. et al., (Mitochondria play a central role in apoptosis induced by α-tocopheryl succinate, an agent with anticancer activity. Comparison with receptor-mediated pro-apoptotic signaling. Biochemistry 42, 4277-4291 (2003)). Acquisition of the ρ^0 phenotype was confirmed by lack of expression by the cells of the mtDNA-encoded cytochrome c oxidase subunit II (COXII not shown). […]

EAhy926 cells = details: level taken from Dong et al, Cancer Res 2007; cited from earlier work
[2] = cited from earlier work

For `Cc1c(C)c2c(c(C)c1OC(=O)CCC(=O)[O-])CCC(C)(CCCCCCCCCCC[P+](c1ccccc1)(c1ccccc1)c1ccccc1)O2` (stereo not shown) [MitoVE11S], which “sensitivity to apoptosis of Ras-transformed B9 cells compared to Ras-transformed B1 cells” value ([1]; 24 h treatment, Annexin V binding) is on record?
Its value is “much less sensitive”.

And the “sensitivity after reconstitution of Complex II function (human SDHC) in Ras-transformed B9 cells” value ([1]; B9 cells transfected to express human SDHC)?
Its value is “restored the sensitivity”.

Which “concentration needed for comparable levels of effects on endothelial cells” value (EAhy926 cells) does the source give for `Cc1c(C)c2c(c(C)c1OC(=O)CCC(=O)O)CC[C@@](C)(CCC[C@H](C)CCC[C@H](C)CCCC(C)C)O2` [α-TOS, α-tocopheryl succinate, reference compound] here?
Its value is 25 to 50 µM.

And the “fold higher percentage in the protonated form” value ([2]; acidic pH of 6.2-6.4 of the tumour interstitium versus neutral pH)?
The value was 10-15 fold.

What about the fraction deprotonated ([2]; at neutral pH) of the same molecule?
Its fraction deprotonated is ~98%.

What about the pKa [2] of the same molecule?
Its pKa is < 6.

And the pKa ([2]; listed as α-tocopheryl succinate)?
Its pKa is 5.6.
